Reference: patent US20160349242A1, “PLATFORM TECHNOLOGIES FOR SPONTANEOUSLY OCCURRING DISEASES” (Oatmeal Biotechnologies Group, LLC, priority 2009, published 2016)
Like-named read-outs stand apart in the source and are kept apart here. Square brackets hold non-standard residues; d marks the D form. Peptide text beside a SMILES is read from it. d(aIle) = CC[C@H](C)[C@@H](N)C(=O)O; Nva = CCC[C@H](N)C(=O)O; Sar = CNCC(=O)O

Tests used:
[1] = tested on: MSC; conditions: in vivo; cited from earlier work
[2] = tested on: cultured cells; conditions: cited from earlier work
[3] = tested on: canine soft tissue sarcoma; conditions: bleomycin and electric pulses; cited from earlier work
[4] = tested on: soft tissue sarcoma; conditions: intralesional, biphasic electric pulses; cited from earlier work
[5] = tested on: soft tissue sarcoma; conditions: cited from earlier work
[6] = tested on: high-grade osteosarcoma; conditions: added to doxorubicin, cisplatin and high-dose methotrexate; cited from earlier work
[7] = tested on: canine MGT; conditions: dog, in vivo; cited from earlier work
[8] = tested on: soft tissue sarcoma (STS) or malignant histiocytosis (MH); conditions: dog, in vivo
Experimental: Depletion of MSC is accomplished by i.v. administration of LC, which is prepared as described for treatment of dogs with malignant histiocytosis (34). The LC is administered once every 2 weeks by slow i.v. infusion over 60 minutes, at a dose of 0.5 ml/kg.

[9] = tested on: canine osteosarcoma; conditions: non-metastatic dogs, cisplatin followed by L-MTP-PE or placebo; cited from earlier work
[10] = tested on: Canine TCC; conditions: dog, in vivo; cited from earlier work
[11] = tested on: tumor growth; conditions: mouse, in vivo; cited from earlier work
[12] = tested on: spontaneous canine tumors; conditions: dog, in vivo; cited from earlier work
[13] = tested on: first-relapse NHL; conditions: with lomustine vs lomustine and placebo; cited from earlier work
[14] = tested on: circulating neutrophil counts; conditions: immunosuppressive doses; cited from earlier work
[15] = tested on: NHL; conditions: cited from earlier work

Compound: CC1=C(/C=C/C(C)=C/C=C/C(C)=C/C(=O)O)C(C)(C)CCC1 [ATRA, all-trans retinoic acid]
- spontaneous anti-tumor immunity [1]: improved
- vaccine responses [1]: significantly enhanced

Compound: bleomycin
- internalized fraction [2]: < 0.1%
- median time to recurrence [3]: 730 days
- response rate [3]: 95%
- long term remissions [4]: 40%
- overall response rate [4]: 80%
- average time of recurrence ([5]; intraoperative bleomycin with electrotherapy): 12 months
- average time of recurrence ([5]; postoperative bleomycin with electrotherapy): 19 months

Compound: O=P1(NCCCl)OCCCN1CCCl (stereo not drawn) [ifosfamide]
- drug free survival (DFS) [6]: did not significantly improve
- overall survival (OS) [6]: did not significantly improve

Compound: COc1cccc2c1C(=O)c1c(O)c3c(c(O)c1C2=O)C[C@@](O)(C(=O)CO)C[C@@H]3O[C@H]1C[C@H](N)[C@H](O)[C@H](C)O1 [doxorubicin]
- anti-tumor activity [7]: a few partial responses

Compound: liposomal clodronate [LC]
- tolerability [8]: well-tolerated

Compound: N.N.[Cl][Pt][Cl] [cisplatin]
- median survival time [9]: 9.8 months

Compound: CN1C(C(=O)Nc2ccccn2)=C(O)c2ccccc2S1(=O)=O [piroxicam]
- objective response rate [10]: 18%

Compound: CCC[C@H](NC(=O)[C@@H](NC(=O)[C@H](NC(=O)[C@@H](NC(=O)CNC(=O)CN(C)C(C)=O)C(C)C)[C@@H](C)CC)[C@@H](C)O)C(=O)N[C@H](C(=O)N[C@@H](CCCNC(=N)N)C(=O)N1CCC[C@H]1C(=O)NCC)[C@@H](C)CC [ABT-526] (Ac-[Sar]GV[d(aIle)]T[Nva]IRP-NHEt)
- tumor growth [11]: slow tumor growth
- relative activity [12]: more active than ABT-510
- duration of response [13]: modestly enhanced
- number of cases responding to chemotherapy [13]: did not increase

Compound: CC/C(=C(\c1ccccc1)c1ccc(OCCN(C)C)cc1)c1ccccc1 [tamoxifen]
- anti-tumor activity [7]: does not have demonstrable anti-tumor activity

Compound: C[C@]12C=CC(=O)C=C1CC[C@@H]1[C@@H]2C(=O)C[C@@]2(C)[C@H]1CC[C@]2(O)C(=O)CO [prednisone]
- time to rebound in circulating neutrophil counts [14]: 48 to 72 h

Compound: Cc1ncc(CO)c(CO)c1O [pyridoxine]
- relative risk of developing PPES, placebo group versus pyridoxine ([15]; daily Doxil with oral pyridoxine or placebo): 4.2 times
- PPES symptoms ([15]; dog, in vivo): delayed and lessened the symptoms
- remission rates between treatment groups ([15]; dog, in vivo): No difference
